{"source": "patent US12171884B2", "about": "“Mesoporous silica nanoparticles with lipid bilayer coating for cargo delivery” (priority 2016, dated 2024)", "key": {"[1]": {"assay": "Maximum tolerated dose (NCI protocol)", "settings": "male, BALB/c, mouse, in vivo; Example 1; healthy mice, IV, validated in six mice over 15 days", "description": ". Two healthy male BALB/c mice were IV injected with a 50 mg/kg (C1 dose) equivalent of free or encapsulated irinotecan. This was followed by a dose escalation factor of 1.8 to obtain the Cn dose, which results in animal death within 24 h after the last administration. The second round of dose-seeking began with the Cn-1 dose and utilized a 1.15 escalation factor (n=2) to find the MTD, which is defined as the absence of mortality or morbidity. The MTD was validated by injecting six mice, which were followed for 15 days to determine the absence of morbidity, mortality, or >15% weight loss.\n. Two healthy male BALB/c mice were IV injected with 50 mg/kg (C1 dose) free or encapsulated drug. We then used a dose escalation factor of 1.8 to determine the Cn dose where both animals (n=2) died within 24 hours. After treatment with free or encapsulated irinotecan. The second round of dose-seeking began with Cn-1 dose, and utilized a 1.15 escalation factor (n=2) to find the MTD, where there was no mortality or serious morbidity. The MTD was further validated by injecting […], and following them for 15 days to ascertain that there was no morbidity, mortality or […]. […]."}, "[2]": {"assay": "Bone marrow toxicity and differential white cell count", "format": "in vivo, mice", "settings": "40 mg/kg IV x3, 2 days apart; listed as free drug, hydrochloride trihydrate", "description": "Bone marrow toxicity was studied in a separate experiment, in which animals received three injections of a 40 mg/kg irinotecan dose equivalent, as described above. After sacrifice, sternal bone marrow was collected to evaluate myelotoxicity by H&E staining (FIG. 4D) (Iusuf et al. (2014) Mol. Cancer Ther. 13: 492-503)."}, "PANC-1 cells": {"system": "PANC-1 cells", "assay": "MTS cytotoxicity assay", "format": "cell-based", "settings": "PANC-1, incremental irinotecan concentrations, 24-72 hours"}, "BxPC-3 cells": {"system": "BxPC-3 cells", "assay": "MTS cytotoxicity assay", "format": "cell-based", "settings": "BxPC3, incremental irinotecan concentrations, 24-72 hours"}, "[3]": {"settings": "human, in vivo; cited from earlier work"}, "[4]": {"system": "KPC-derived orthotopic tumors", "assay": "Efficacy assessment in KPC-derived orthotopic model", "settings": "40 mg/kg IV every 4 days"}, "[5]": {"assay": "Liver and intestinal toxicity (H&E, cleaved caspase-3 IHC)", "settings": "animals of efficacy study, 40 mg/kg every 4 days"}, "[6]": {"assay": "Acute histological analysis after single IV dose (Example 2)", "settings": "60 mg/kg single IV, 24 hours; for kidney histology: hydrochloride trihydrate"}, "PDAC": {"system": "PDAC", "settings": "PDAC patients; cited from earlier work"}, "[7]": {"system": "KPC-derived orthotopic tumor", "settings": "mouse, in vivo", "text": "This stringent PDAC tumor model mimics human PDAC for oncogene expression, growth characteristics, metastasis, histological features and development of a dysplastic stroma. […] Imaging intensity was quantified by IVIS Lumina Living Image software."}, "[8]": {"system": "patient-derived PDAC xenograft XWR #187", "settings": "mouse, in vivo, 50 mg/kg"}}, "note": "Entries after “also recorded” stand apart in the source; their conditions may differ. Where a name gives a salt, the structure may show the parent alone.", "data": [{"molecule": "CCc1c2c(nc3ccc(OC(=O)N4CCC(N5CCCCC5)CC4)cc13)-c1cc3c(c(=O)n1C2)COC(=O)[C@]3(O)CC", "note": "[free irinotecan, Irinotecan hydrochloride trihydrate]", "values": [{"measurement": "MTD at 15 days", "setting": "[1]", "result": 60, "unit": "mg/kg"}, {"measurement": "peripheral blood neutrophil count", "setting": "[2]", "result": "significant decrease of the absolute neutrophil count; also recorded: peripheral blood neutropenia"}, {"measurement": "cell killing (MTS)", "setting": "PANC-1 cells", "result": "more effective in killing over 24 hours"}, {"measurement": "cell killing (MTS)", "setting": "BxPC-3 cells", "result": "more effective in killing over 24 hours"}, {"measurement": "G.I.T. adverse effects (vomiting, diarrhea, nausea, anorexia)", "setting": "[3]", "result": "~50 % of patients"}, {"measurement": "incidence of neutropenia", "setting": "[3]", "result": "~60", "unit": "%"}, {"measurement": "effect on metastasis (ex vivo bioluminescence)", "setting": "[4]", "result": "failed to affect metastasis"}, {"measurement": "liver histology (H&E)", "setting": "[5]", "result": "severe and extensive hepatocyte necrosis"}, {"measurement": "bone marrow toxicity (H&E histology)", "setting": "[6]", "result": "Severe bone marrow damage and apoptosis"}, {"measurement": "kidney histology", "setting": "[6]; listed as Free irinotecan", "result": "nephrotoxicity"}, {"measurement": "kidney histology", "setting": "[6]; listed as free IRIN", "result": "swelling and edema of Bowman's space"}]}, {"molecule": "FOLFIRINOX", "values": [{"measurement": "response rate", "setting": "PDAC", "result": 31.6, "unit": "%"}, {"measurement": "survival", "setting": "PDAC", "result": "~11", "unit": "months"}]}, {"molecule": "N=C(N)NCCC[C@@H]1NC(=O)[C@@H](N)CSSC[C@@H](C(=O)O)NC(=O)[C@H](CC(=O)O)NC(=O)[C@@H]2CCCN2C(=O)CNC(=O)[C@H](CCCCN)NC(=O)[C@H](CC(=O)O)NC(=O)CNC1=O", "note": "[iRGD]", "values": [{"measurement": "enhancement of silicasome uptake at orthotopic tumor site by co-administration", "setting": "[7]", "result": "3-4 fold"}, {"measurement": "intratumoral particle abundance and traveling distance from blood vessels", "setting": "[7]", "result": "most effective strategy to enhance silicasome uptake"}, {"measurement": "increase of NIR intensity at the tumor site", "setting": "[8]", "result": 50, "unit": "%"}]}, {"molecule": "Nc1ccn([C@@H]2O[C@H](CO)[C@@H](O)C2(F)F)c(=O)n1", "note": "[GEM, gemcitabine]", "values": [{"measurement": "response rate", "setting": "PDAC", "result": 9.4, "unit": "%"}, {"measurement": "survival", "setting": "PDAC", "result": 6.8, "unit": "months"}]}]}
